Here are results for 3 molecules from patent publication US20260201008A1, “SECRETIN-DERIVED GLP1R SELECTIVE AGONISTS” (GUBRA A/S, priority 2023, published 2026).

Where two headings read alike, the source gives them in different places. Numbered stars: 1 amine (or outer) side, 2 acyl side, 3 side chain; on linkers, the order of the positions; unused ones are H or OH. Square brackets hold non-standard residues; d marks the D form. Side chains are listed from the residue outwards. Peptide text beside a SMILES is read from it. * marks the point of attachment. C20 diacid = O=C(O)CCCCCCCCCCCCCCCCCCC(=O)*; γGlu = O=C(O)[C@H](CCC(=O)[*:2])N[*:1]; AEEA = NCCOCCOCC(=O)O; Aib = CC(C)(N)C(=O)O

The nature of data set [1]: Turbidity of crude library peptides (absorbance at 600 nm). The conditions noted are these: Physical stability of peptides. Format: physicochemical. An outline of the steps: (§1)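 Turbidity is the absorbance at 600 nm, taken before heating. Fibril signal is the mean ThT emission at 480 nm (450 nm excitation), read every 10 min over 72 h at 40° C with 700 rpm shaking between reads. Peptides at 267 μM, pH 4.0 acetate or pH 7.0 phosphate buffer (50 mM), 4 μM ThT final.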

Data set [2] in a line: Fibril formation of crude library peptides (Thioflavin T). Format: physicochemical. Also noted: key: average ThT fluorescence emission at 480 nm (ex 450 nm), raw units. Conditions: Physical stability of peptides. An outline of the steps:
as §1

Data set [3] has as its target GLP1R (Homo sapiens, UniProt P43220). Kind of data set: hGLP1R potency, cAMP accumulation in CHO-K1 cells stably overexpressing hGLP1R. Also noted: host or cells: CHO-K1. It is filed as cell-based. Conditions: for EC50: cAMP accumulation; for SCTR EC50/GLP1R EC50 ratio: selectivity ratio, hSCTR vs hGLP1R, cAMP accumulation in CHO-K1 cells. An outline of the steps: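 EC50 derives from variable-slope nonlinear regression of cAMP HTRF signal, with purified peptides tested as 11 three-fold dilutions in duplicate. Assay: hGLP1R-overexpressing CHO-K1 cells, 0.5 mM IBMX, 0.05% casein in DPBS, 30 min room-temperature stimulation, GLP-1(7-36) as reference agonist.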
(In general: cAMP levels reflect the balance of adenylyl cyclase and phosphodiesterase activity.)

Data set [4] deals with SCTR (Homo sapiens, UniProt P47872). The data set is described as follows: hSCTR potency, cAMP accumulation in CHO-K1 cells stably overexpressing hSCTR. It is filed as cell-based. Details: alternatively Euroscreen ES-712-AF; FAST-0161L; host or cells: CHO-K1. The conditions noted are these: cAMP accumulation. An outline of the steps:
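EC50 derived from variable-slope nonlinear regression on 11-point, 3-fold series run in duplicate (crude peptides: 5 points, 10-fold, n=1). Compound stimulation lasted 30 min at room temperature in casein/IBMX-containing DPBS (0.05%, 0.5 mM), 2000 cells/well; cAMP detected by time-resolved FRET after one hour.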

Where [5] appears, read: CHO-K1 cells stably overexpressing hGLP1R, read-out: hGLP1R potency (pEC50) (converted).
[6] abbreviates: CHO-K1 cells stably overexpressing hSCTR, read-out: hSCTR potency (pEC50) (converted).

GLP1R, sequence (P43220 24-463): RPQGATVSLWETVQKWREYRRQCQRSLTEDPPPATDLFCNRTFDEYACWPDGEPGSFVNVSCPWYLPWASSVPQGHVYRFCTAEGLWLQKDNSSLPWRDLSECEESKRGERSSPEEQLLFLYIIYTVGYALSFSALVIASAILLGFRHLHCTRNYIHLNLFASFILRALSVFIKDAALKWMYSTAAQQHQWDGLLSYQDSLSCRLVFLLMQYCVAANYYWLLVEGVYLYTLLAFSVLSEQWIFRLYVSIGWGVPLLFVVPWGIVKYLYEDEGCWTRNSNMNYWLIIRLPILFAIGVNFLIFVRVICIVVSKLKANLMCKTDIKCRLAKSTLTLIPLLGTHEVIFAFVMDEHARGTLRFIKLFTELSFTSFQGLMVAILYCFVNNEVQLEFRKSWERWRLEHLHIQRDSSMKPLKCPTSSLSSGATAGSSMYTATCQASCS
SCTR, sequence (P47872 23-440): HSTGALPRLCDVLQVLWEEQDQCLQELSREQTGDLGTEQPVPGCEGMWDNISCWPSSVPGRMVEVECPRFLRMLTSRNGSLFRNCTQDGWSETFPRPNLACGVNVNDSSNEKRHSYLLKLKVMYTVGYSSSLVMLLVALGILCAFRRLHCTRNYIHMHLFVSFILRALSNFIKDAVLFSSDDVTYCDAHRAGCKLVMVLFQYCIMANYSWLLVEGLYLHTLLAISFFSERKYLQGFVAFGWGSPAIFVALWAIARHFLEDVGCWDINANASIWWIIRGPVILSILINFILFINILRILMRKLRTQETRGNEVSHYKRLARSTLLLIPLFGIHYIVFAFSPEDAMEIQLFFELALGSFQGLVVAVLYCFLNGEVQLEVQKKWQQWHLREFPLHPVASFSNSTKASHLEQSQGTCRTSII

For `CC[C@H](C)[C@H](NC(=O)[C@H](Cc1ccccc1)NC(=O)[C@H](CCCNC(=N)N)NC(=O)[C@H](CCC(N)=O)NC(=O)[C@H](CC(C)C)NC(=O)[C@H](C)NC(=O)[C@H](C)NC(=O)CNC(=O)[C@H](CCC(=O)O)NC(=O)[C@H](CC(C)C)NC(=O)[C@H](CC(C)C)NC(=O)CNC(=O)[C@H](CO)NC(=O)[C@H](Cc1ccc(O)cc1)NC(=O)[C@H](CC(=O)O)NC(=O)[C@H](CO)NC(=O)[C@@H](NC(=O)[C@H](Cc1ccccc1)NC(=O)[C@@H](NC(=O)CNC(=O)[C@H](CCC(=O)O)NC(=O)C(C)(C)NC(=O)[C@@H](N)Cc1c[nH]cn1)[C@@H](C)O)[C@@H](C)O)C(=O)N[C@@H](CCC(N)=O)C(=O)N[C@@H](Cc1c[nH]c2ccccc12)C(=O)N[C@@H](CC(C)C)C(=O)N[C@H](C(N)=O)C(C)C` [compound 195] (H-H[Aib]EGTFTSDYSGLLEGAALQRFIQWLV-NH2), in data set [1], the “Turbidity (pH 7)” value came out at 0.25. In data set [2], this molecule came in with a Fibril formation of 144234. For the same molecule, the values for the EC50 in data set [3] (setting [5]) and in data set [4] (setting [6]) were 0.0251 nM and 10 nM, respectively. The “SCTR EC50/GLP1R EC50 ratio” value in data set [3] is 419.
In the same order, the values of `CC[C@H](C)[C@H](NC(=O)[C@H](Cc1ccccc1)NC(=O)[C@H](CCCNC(=N)N)NC(=O)[C@H](CCC(N)=O)NC(=O)[C@H](CC(C)C)NC(=O)[C@H](C)NC(=O)[C@H](C)NC(=O)CNC(=O)[C@H](CCC(=O)O)NC(=O)[C@H](CC(C)C)NC(=O)[C@H](CC(C)C)NC(=O)C(C)(C)NC(=O)[C@H](CO)NC(=O)[C@H](Cc1ccc(O)cc1)NC(=O)[C@H](CC(=O)O)NC(=O)[C@H](CO)NC(=O)[C@@H](NC(=O)[C@H](Cc1ccccc1)NC(=O)[C@@H](NC(=O)CNC(=O)[C@H](CCC(=O)O)NC(=O)C(C)(C)NC(=O)[C@@H](N)Cc1c[nH]cn1)[C@@H](C)O)[C@@H](C)O)C(=O)N[C@@H](CCC(N)=O)C(=O)N[C@@H](Cc1c[nH]c2ccccc12)C(=O)N[C@@H](CC(C)C)C(=O)N[C@H](C(N)=O)C(C)C` [compound 197] (H-H[Aib]EGTFTSDYS[Aib]LLEGAALQRFIQWLV-NH2) are 0.21, 7498, 0.0158 nM, 7.94 nM and 492.
For the molecule `CC(C)C[C@H](NC(=O)[C@H](Cc1ccccc1)NC(=O)[C@H](CCCNC(=N)N)NC(=O)[C@H](CCC(N)=O)NC(=O)[C@H](C)NC(=O)[C@H](C)NC(=O)[C@H](C)NC(=O)C(C)(C)NC(=O)[C@H](CCC(=O)O)NC(=O)[C@H](CCCCNC(=O)COCCOCCNC(=O)COCCOCCNC(=O)CC[C@H](NC(=O)CCCCCCCCCCCCCCCCCCC(=O)O)C(=O)O)NC(=O)[C@H](CC(C)C)NC(=O)[C@@H](NC(=O)[C@H](CO)NC(=O)[C@@H](NC(=O)[C@H](CC(=O)O)NC(=O)[C@H](CO)NC(=O)[C@@H](NC(=O)[C@H](Cc1ccccc1)NC(=O)[C@@H](NC(=O)CNC(=O)[C@H](CCC(=O)O)NC(=O)C(C)(C)NC(=O)[C@@H](N)Cc1c[nH]cn1)[C@@H](C)O)[C@@H](C)O)C(C)C)C(C)C)C(=O)N[C@@H](CCC(=O)O)C(=O)N[C@@H](Cc1c[nH]cn1)C(=O)N[C@@H](CC(C)C)C(=O)N[C@H](C(N)=O)C(C)C` [compound 15] (H-H[Aib]EGTFTSDVSVLK([AEEA-AEEA-γGlu-C20 diacid])E[Aib]AAAQRFLEHLV-NH2), in data set [1], the “Turbidity (pH 7)” value amounted to 0.09. The molecule also yielded a Fibril formation in data set [2] of 12385. For the same molecule, the Selectivity in data set [3] (SCTR EC50/GLP1R EC50 ratio) came to 3961. Further, the EC50 in data set [3] (CHO-K1 cells overexpressing hGLP1R, read-out: pEC50 hGLPR1 (converted)) was 0.0794 nM; in data set [4] (CHO-K1 cells overexpressing hSCTR, read-out: pEC50 hSCTR (converted)), 316 nM.
